Measured values from PMC4417173 (2015).

What was measured:
[1] = test system: 5'-T8iG4T isoguanine quadruplex, (T8iG4T)4 (DNA, other, 2'-deoxyisoguanine at 9, 10, 11, 12 (written as G)) TTTTTTTTGGGGT; assay: UV-vis titration, Soret band; conditions: 20 mM KCl; 40 mM Tris-HCl pH 8.0, 1% DMF, 0.05% Triton X-100, 25 °C; highest DNA tested 70 μM
[2] = test system: 5'-T8G4T G-quadruplex, (T8G4T)4 (DNA, G4) TTTTTTTTGGGGT; assay: UV-vis titration, Soret band 404 nm; conditions: 40 mM Tris-HCl pH 8.0, 1% DMF, 0.05% Triton X-100, 25 °C, 0.5 μM heme
[3] = test system: 5'-T8iG4T isoguanine pentaplex, (T8iG4T)5 (DNA, other, 2'-deoxyisoguanine at 9, 10, 11, 12 (written as G)) TTTTTTTTGGGGT; assay: UV-vis titration, Soret band 404 nm; conditions: 20 mM NaCl; 40 mM Tris-HCl pH 8.0, 1% DMF, 0.05% Triton X-100, 25 °C; 0.5 μM heme

Q: How did the binding [1] turn out when `C=CC1=C(C)C2=Cc3c(C=C)c(C)c4[n]3[Fe]([Cl])[n]3c(c(C)c(CCC(=O)O)c3=CC3=NC(=C4)C(C)=C3CCC(=O)O)=CC1=N2` was run?
A: Its binding is “no”.

Q: What about the Kd ([2]; 20 mM KCl) of the same molecule?
A: The Kd was 7.89 ± 0.96 µM.

Q: And the Kd ([2]; 20 mM NaCl)?
A: The Kd was 3.22 ± 0.43 µM.

Q: What about the Kd [3] of the same molecule?
A: The Kd was 1.28 ± 0.05 µM.
